Where a name gives a salt, the structure may show the parent alone. Blank lines part the entries; values can stand above or below the molecule they belong to.
What was measured:
[1] = target: T1, c-KIT (Homo sapiens, UniProt P10721); assay: c-KIT Cell-Based Assay (Example D); details: averaged IC50; phospho-c-KIT in M-07e cells stimulated with 150 ng/ml recombinant human SCF; read-out: cKIT Cell ELISA IC50
T1 construct: M-07e cells (human acute megakaryoblastic leukemia cell line) were serum-starved for 4 hours; endogenous in cells; host or cells: M-07e cells (human acute megakaryoblastic leukemia cell line)
T1 sequence (P10721 26-976): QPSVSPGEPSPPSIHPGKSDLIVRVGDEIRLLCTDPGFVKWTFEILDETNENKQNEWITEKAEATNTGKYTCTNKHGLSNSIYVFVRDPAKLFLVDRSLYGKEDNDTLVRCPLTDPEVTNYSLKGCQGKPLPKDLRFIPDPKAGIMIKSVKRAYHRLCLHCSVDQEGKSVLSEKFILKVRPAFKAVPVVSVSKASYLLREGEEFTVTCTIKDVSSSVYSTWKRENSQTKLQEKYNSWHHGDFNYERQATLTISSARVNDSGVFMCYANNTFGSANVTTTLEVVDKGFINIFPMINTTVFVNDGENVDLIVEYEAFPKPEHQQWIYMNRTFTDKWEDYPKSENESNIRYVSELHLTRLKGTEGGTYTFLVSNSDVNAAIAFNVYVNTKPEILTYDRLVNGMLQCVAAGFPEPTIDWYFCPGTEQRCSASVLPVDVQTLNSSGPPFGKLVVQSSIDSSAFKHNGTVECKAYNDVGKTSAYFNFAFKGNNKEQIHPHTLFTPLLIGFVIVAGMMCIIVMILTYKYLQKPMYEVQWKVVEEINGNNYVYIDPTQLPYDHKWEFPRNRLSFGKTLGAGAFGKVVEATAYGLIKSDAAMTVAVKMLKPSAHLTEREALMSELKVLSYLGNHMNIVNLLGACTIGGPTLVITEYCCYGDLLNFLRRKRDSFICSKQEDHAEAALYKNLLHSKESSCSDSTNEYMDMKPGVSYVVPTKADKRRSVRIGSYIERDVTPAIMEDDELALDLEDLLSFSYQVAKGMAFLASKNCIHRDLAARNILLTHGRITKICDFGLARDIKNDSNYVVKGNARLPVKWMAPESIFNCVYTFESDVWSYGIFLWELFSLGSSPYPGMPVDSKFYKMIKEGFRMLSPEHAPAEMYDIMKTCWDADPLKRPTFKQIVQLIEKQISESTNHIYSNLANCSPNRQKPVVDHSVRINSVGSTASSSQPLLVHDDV
Procedure, shortened: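 Phospho-c-KIT ELISA readout, calibrated with purified phospho-SCF R, gave IC50 (4-parameter fit, 50% of control). Before lysis, M-07e cells were starved 4 h, exposed 1 h to a 9-point 3-fold series (highest usually 5,000 nM), and stimulated with 150 ng/ml SCF for 4 min.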

[2] = target: T2, PDGFR beta (Homo sapiens, UniProt P09619); assay: Phospho PDGFR Cell Assay, sandwich ELISA (Example A); format: cell-based; details: averaged IC50, PDGFR beta phosphorylation in HS27 human fibroblast cell line, PDGF-BB stimulation 5 minutes
T2 construct: endogenous in cells; host or cells: HS27 human fibroblast cell line
T2 sequence (P09619 33-1106): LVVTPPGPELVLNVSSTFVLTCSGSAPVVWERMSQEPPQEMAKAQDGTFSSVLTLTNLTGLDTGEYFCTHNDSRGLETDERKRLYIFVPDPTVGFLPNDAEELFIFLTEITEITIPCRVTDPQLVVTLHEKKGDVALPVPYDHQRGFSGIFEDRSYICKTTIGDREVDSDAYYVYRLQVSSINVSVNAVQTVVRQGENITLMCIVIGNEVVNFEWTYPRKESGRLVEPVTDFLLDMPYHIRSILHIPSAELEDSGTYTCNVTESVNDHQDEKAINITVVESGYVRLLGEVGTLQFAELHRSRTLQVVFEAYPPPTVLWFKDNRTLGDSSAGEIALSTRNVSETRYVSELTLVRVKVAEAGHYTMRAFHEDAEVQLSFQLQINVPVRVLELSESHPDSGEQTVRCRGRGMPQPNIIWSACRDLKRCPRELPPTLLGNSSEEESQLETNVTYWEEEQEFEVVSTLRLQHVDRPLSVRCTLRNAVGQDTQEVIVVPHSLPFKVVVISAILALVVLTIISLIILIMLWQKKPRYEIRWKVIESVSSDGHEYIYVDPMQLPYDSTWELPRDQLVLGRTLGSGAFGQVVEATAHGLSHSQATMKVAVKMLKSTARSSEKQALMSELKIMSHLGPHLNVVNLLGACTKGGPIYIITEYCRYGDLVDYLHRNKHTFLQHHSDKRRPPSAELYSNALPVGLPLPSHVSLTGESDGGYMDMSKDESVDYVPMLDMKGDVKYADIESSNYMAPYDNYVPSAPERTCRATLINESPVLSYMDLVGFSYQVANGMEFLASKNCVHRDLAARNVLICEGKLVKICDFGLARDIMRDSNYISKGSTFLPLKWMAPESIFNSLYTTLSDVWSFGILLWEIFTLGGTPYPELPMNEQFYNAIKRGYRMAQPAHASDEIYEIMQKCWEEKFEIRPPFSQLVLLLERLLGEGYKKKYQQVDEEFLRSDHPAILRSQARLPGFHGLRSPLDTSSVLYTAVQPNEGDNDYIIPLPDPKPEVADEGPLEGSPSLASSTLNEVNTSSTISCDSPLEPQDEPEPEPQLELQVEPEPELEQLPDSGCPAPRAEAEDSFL
Protocol: Compounds were screened for inhibition of PDGFR beta phosphorylation in the HS27 human fibroblast cell line. Cells were seeded into a 96 well tissue culture plate, then incubated overnight in a 37° C., 5% CO2 incubator. The following day, cells were treated for one hour with test compound dilutions. After stimulation with PDGF-BB ligand for 5 minutes, cells were lysed and added to a sandwich ELISA plate from R&D Systems to detect levels of phospho PDGFR beta. A standard 4-parameter logistic model was fit to the inhibitor dose response curves, with the IC50 being defined as the concentration of inhibitor giving 50 percent of control (POC).

[3] = target: T3, cFMS (Homo sapiens, UniProt P07333); assay: cFMS Cell-Based Assay (Example C); details: averaged IC50; phospho-cFMS in THP-1 cells stimulated with 250 ng/mL recombinant human MCSF; read-out: cFMS Cell ELISA IC50
T3 construct: THP-1 cells (human acute monocytic leukemia cell line) were serum-starved for 4 hours; endogenous in cells; host or cells: THP-1 cells (human acute monocytic leukemia cell line)
T3 sequence (P07333 20-972): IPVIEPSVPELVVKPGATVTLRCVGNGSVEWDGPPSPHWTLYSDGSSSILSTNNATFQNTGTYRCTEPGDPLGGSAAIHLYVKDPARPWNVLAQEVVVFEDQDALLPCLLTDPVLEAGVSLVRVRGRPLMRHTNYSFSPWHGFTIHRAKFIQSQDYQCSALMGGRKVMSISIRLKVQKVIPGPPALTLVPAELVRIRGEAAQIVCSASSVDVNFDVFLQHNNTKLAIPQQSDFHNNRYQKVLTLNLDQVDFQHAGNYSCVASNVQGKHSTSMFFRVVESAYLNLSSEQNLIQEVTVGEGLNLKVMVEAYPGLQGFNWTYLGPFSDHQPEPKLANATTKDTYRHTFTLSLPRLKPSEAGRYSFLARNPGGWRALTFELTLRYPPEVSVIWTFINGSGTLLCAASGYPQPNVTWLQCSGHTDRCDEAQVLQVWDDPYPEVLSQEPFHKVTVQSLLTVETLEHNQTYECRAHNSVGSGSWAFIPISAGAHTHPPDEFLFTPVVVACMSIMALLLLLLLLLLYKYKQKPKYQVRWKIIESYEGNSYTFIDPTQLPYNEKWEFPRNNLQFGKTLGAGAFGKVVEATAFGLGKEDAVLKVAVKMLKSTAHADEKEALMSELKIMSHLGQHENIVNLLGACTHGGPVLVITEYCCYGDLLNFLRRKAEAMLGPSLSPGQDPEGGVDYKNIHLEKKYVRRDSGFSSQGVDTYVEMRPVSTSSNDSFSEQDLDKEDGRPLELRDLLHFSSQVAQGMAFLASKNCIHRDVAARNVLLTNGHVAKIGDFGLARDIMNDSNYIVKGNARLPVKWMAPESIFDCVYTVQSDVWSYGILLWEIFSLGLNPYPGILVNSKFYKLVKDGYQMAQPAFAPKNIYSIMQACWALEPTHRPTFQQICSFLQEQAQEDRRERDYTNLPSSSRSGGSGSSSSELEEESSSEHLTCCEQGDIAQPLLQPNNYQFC
Procedure, shortened: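 Phosphotyrosine on cFMS, captured from lysates and quantified by ELISA, reads receptor activation after 1 min of 250 ng/mL human MCSF. Beforehand, THP-1 cells were serum-starved for 4 h and exposed to compound for 1 h (9 points, 3-fold, typically up to 5,000 nM). IC50 from a 4-parameter logistic fit as 50 percent of control.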

Structure (SMILES): CCCc1ccc(Cn2nc(C)c3c(NC(=O)c4cnc5cc(OCCN6CCN(C)[C@@H](C)C6)ccn45)cccc32)nc1 [Example 38, (S)-7-(2-(3,4-dimethylpiperazin-1-yl)ethoxy)-N-(3-methyl-1-((5-propylpyridin-2-yl)methyl)-1H-indazol-4-yl)imidazo[1,2-a]pyridine-3-carboxamide]
IC50 [1]: 337 nM
IC50 [2]: 253 nM
IC50 [3]: 15.4 nM

Structure (SMILES): Cc1nn(Cc2ccc(C(C)C)cn2)c2cccc(NC(=O)c3cnc4cc(OCCN5CCN(C)[C@@H](C)C5)ccn34)c12 [Example 39, (S)-7-(2-(3,4-dimethylpiperazin-1-yl)ethoxy)-N-(1-((5-isopropylpyridin-2-yl)methyl)-3-methyl-1H-indazol-4-yl)imidazo[1,2-a]pyridine-3-carboxamide]
IC50 [1]: 188 nM
IC50 [2]: 68 nM
IC50 [3]: 35.7 nM

Structure (SMILES): Cc1cccc(Cn2nc(C)c3c(NC(=O)c4cnc5cc(C6=CCNCC6)ccn45)cccc32)n1 [Example 51, N-(3-methyl-1-((6-methylpyridin-2-yl)methyl)-1H-indazol-4-yl)-7-(1,2,3,6-tetrahydropyridin-4-yl)imidazo[1,2-a]pyridine-3-carboxamide hydrochloride]
IC50 [1]: 687 nM
IC50 [2]: 394 nM
IC50 [3]: 9.9 nM

Structure (SMILES): Cc1cccc(Cn2nc(C)c3c(NC(=O)c4cnc5cc(C6CCNCC6)ccn45)cccc32)n1 [Example 52, N-(3-methyl-1-((6-methylpyridin-2-yl)methyl)-1H-indazol-4-yl)-7-(piperidin-4-yl)imidazo[1,2-a]pyridine-3-carboxamide tri-hydrochloride]
IC50 [1]: 5000 nM
IC50 [2]: ≥ 1000 nM
IC50 [3]: 108 nM

Structure (SMILES): Cc1cccc(Cn2nc(C)c3c(NC(=O)c4cnc5cc(F)ccn45)cccc32)n1 [Example 53, 7-fluoro-N-(3-methyl-1-((6-methylpyridin-2-yl)methyl)-1H-indazol-4-yl)imidazo[1,2-a]pyridine-3-carboxamide]
IC50 [1]: 4580 nM
IC50 [2]: ≥ 1000 nM
IC50 [3]: 73.5 nM

Structure (SMILES): Cc1cccc(Cn2nc(C)c3c(NC(=O)c4cnc5cc(N6CCCC6)ccn45)cccc32)n1 [Example 54, N-(3-methyl-1-((6-methylpyridin-2-yl)methyl)-1H-indazol-4-yl)-7-(pyrrolidin-1-yl)imidazo[1,2-a]pyridine-3-carboxamide dihydrochloride]
IC50 [1]: 387 nM
IC50 [2]: 291 nM
IC50 [3]: 8.8 nM

Structure (SMILES): Cc1cccc(Cn2nc(C)c3c(NC(=O)c4cnc5cc(OCCN6CCN(C(=O)OC(C)(C)C)CC6)ccn45)cccc32)n1 [Example 56, tert-Butyl 4-(2-(3-(3-methyl-1-((6-methylpyridin-2-yl)methyl)-1H-indazol-4-ylcarbamoyl)imidazo[1,2-a]pyridin-7-yloxy)ethyl)piperazine-1-carboxylate]
IC50 [1]: 1160 nM
IC50 [2]: ≥ 1000 nM
IC50 [3]: 32.1 nM

Structure (SMILES): Cc1cccc(Cn2nc(C)c3c(NC(=O)c4cnc5cc(OCCO)ccn45)cccc32)n1 [Example 57, 7-(2-hydroxyethoxy)-N-(3-methyl-1-((6-methylpyridin-2-yl)methyl)-1H-indazol-4-yl)imidazo[1,2-a]pyridine-3-carboxamide di-hydrochloride salt]
IC50 [1]: 1270 nM
IC50 [2]: 658 nM
IC50 [3]: 40.2 nM

Structure (SMILES): Cc1cccc(Cn2nc(C)c3c(NC(=O)c4cnc5ccc(C#N)cn45)cccc32)n1 [Example 62, 6-cyano-N-(3-methyl-1-((6-methylpyridin-2-yl)methyl)-1H-indazol-4-yl)imidazo[1,2-a]pyridine-3-carboxamide]
IC50 [1]: 2450 nM
IC50 [2]: 886 nM
IC50 [3]: 257 nM

Structure (SMILES): Cc1cccc(Cn2nc(C)c3c(NC(=O)c4cnc5cc(O)ccn45)cccc32)n1 [Example 63, 7-hydroxy-N-(3-methyl-1-((6-methylpyridin-2-yl)methyl)-1H-indazol-4-yl)imidazo[1,2-a]pyridine-3-carboxamide]
IC50 [1]: 5000 nM
IC50 [2]: ≥ 1000 nM
IC50 [3]: 47 nM

Structure (SMILES): Cc1cccc(Cn2nc(C)c3c(NC(=O)c4cnc5cc(-c6ccnn6C)ccn45)cccc32)n1 [Example 71, N-(3-methyl-1-((6-methylpyridin-2-yl)methyl)-1H-indazol-4-yl)-7-(1-methyl-1H-pyrazol-5-yl)imidazo[1,2-a]pyridine-3-carboxamide]
IC50 [1]: 455 nM
IC50 [2]: 274 nM
IC50 [3]: 7.6 nM

Structure (SMILES): Cc1cccc(Cn2nc(C)c3c(NC(=O)c4cnc5cc(CCO)ccn45)cccc32)n1 [Example 73, 7-(2-hydroxyethyl)-N-(3-methyl-1-((6-methylpyridin-2-yl)methyl)-1H-indazol-4-yl)imidazo[1,2-a]pyridine-3-carboxamide]
IC50 [1]: 5000 nM
IC50 [2]: ≥ 1000 nM
IC50 [3]: 63.6 nM

Structure (SMILES): Cc1cccc(Cn2nc(C)c3c(NC(=O)c4cnc5cc(C(C)NCCO)ccn45)cccc32)n1 (stereo not drawn) [Example 75, 7-(1-(2-hydroxyethylamino)ethyl)-N-(3-methyl-1-((6-methylpyridin-2-yl)methyl)-1H-indazol-4-yl)imidazo[1,2-a]pyridine-3-carboxamide]
IC50 [1]: 5000 nM
IC50 [2]: ≥ 1000 nM
IC50 [3]: 427 nM

Structure (SMILES): Cc1cccc(Cn2nc(C)c3c(NC(=O)c4cnc5cc(C(C)O)ccn45)cccc32)n1 (stereo not drawn) [Example 76, 7-(1-hydroxyethyl)-N-(3-methyl-1-((6-methylpyridin-2-yl)methyl)-1H-indazol-4-yl)imidazo[1,2-a]pyridine-3-carboxamide]
IC50 [1]: 5000 nM
IC50 [2]: ≥ 1000 nM
IC50 [3]: 47 nM

Structure (SMILES): Cc1cccc(Cn2nc(C)c3c(NC(=O)c4cnc5cc(CCN6CCCC6)ccn45)cccc32)n1 [Example 77, N-(3-methyl-1-((6-methylpyridin-2-yl)methyl)-1H-indazol-4-yl)-7-(2-(pyrrolidin-1-yl)ethyl)imidazo[1,2-a]pyridine-3-carboxamide]
IC50 [1]: 5000 nM
IC50 [2]: ≥ 1000 nM
IC50 [3]: 78.1 nM

Stronger by IC50 [1], values ahead:

IC50 [1]: 146 nM
IC50 [2]: 99.2 nM
IC50 [3]: 5.1 nM
Structure (SMILES): Cc1cccc(Cn2nc(C)c3c(NC(=O)c4cnc5cc(-c6cn[nH]c6)ccn45)cccc32)n1 [Example 70, N-(3-methyl-1-((6-methylpyridin-2-yl)methyl)-1H-indazol-4-yl)-7-(1H-pyrazol-4-yl)imidazo[1,2-a]pyridine-3-carboxamide]

IC50 [1]: 119 nM
IC50 [2]: 65.6 nM
IC50 [3]: 12 nM
Structure (SMILES): CCc1cccc(Cn2nc(C)c3c(NC(=O)c4cnc5cc(OCCN6CCN(C)[C@@H](C)C6)ccn45)cccc32)n1 [Example 36, (S)-7-(2-(3,4-dimethylpiperazin-1-yl)ethoxy)-N-(1-((6-ethylpyridin-2-yl)methyl)-3-methyl-1H-indazol-4-yl)imidazo[1,2-a]pyridine-3-carboxamide]

IC50 [1]: 95 nM
IC50 [2]: 37.2 nM
IC50 [3]: 55.8 nM
Structure (SMILES): Cc1nn(Cc2cccc(CC(C)C)n2)c2cccc(NC(=O)c3cnc4cc(OCCN5CCN(C)[C@@H](C)C5)ccn34)c12 [Example 40, (S)-7-(2-(3,4-dimethylpiperazin-1-yl)ethoxy)-N-(1-((6-isobutylpyridin-2-yl)methyl)-3-methyl-1H-indazol-4-yl)imidazo[1,2-a]pyridine-3-carboxamide]

IC50 [1]: 87.2 nM
IC50 [2]: 19.6 nM
IC50 [3]: 97.1 nM
Structure (SMILES): Cc1nn(Cc2ccc(F)c(C(C)C)n2)c2cccc(NC(=O)c3cnc4cc(OCCN5CCN(C)[C@@H](C)C5)ccn34)c12 [Example 41, (S)-7-(2-(3,4-dimethylpiperazin-1-yl)ethoxy)-N-(1-((5-fluoro-6-isopropylpyridin-2-yl)methyl)-3-methyl-1H-indazol-4-yl)imidazo[1,2-a]pyridine-3-carboxamide]

IC50 [1]: 62 nM
IC50 [2]: 102 nM
IC50 [3]: 52.4 nM
Structure (SMILES): CCC(C)c1cccc(Cn2nc(C)c3c(NC(=O)c4cnc5cc(OCCN6CCN(C)[C@@H](C)C6)ccn45)cccc32)n1 (stereo partly drawn) [Example 37, N-(1-((6-sec-butylpyridin-2-yl)methyl)-3-methyl-1H-indazol-4-yl)-7-(2-((S)-3,4-dimethylpiperazin-1-yl)ethoxy)imidazo[1,2-a]pyridine-3-carboxamide]

IC50 [1]: 58.9 nM
IC50 [2]: 84.5 nM
IC50 [3]: 23.4 nM
Structure (SMILES): Cc1nn(Cc2cccc(C3CC3)n2)c2ccc(F)c(NC(=O)c3cnc4cc(OCCN5CCN(C)[C@@H](C)C5)ccn34)c12 [Example 43, (S)—N-(1-((6-cyclopropylpyridin-2-yl)methyl)-5-fluoro-3-methyl-1H-indazol-4-yl)-7-(2-(3,4-dimethylpiperazin-1-yl)ethoxy)imidazo[1,2-a]pyridine-3-carboxamide]

IC50 [1]: 42.5 nM
IC50 [2]: 21.4 nM
IC50 [3]: 22.4 nM
Structure (SMILES): Cc1nn(Cc2cccc(C(C)C)n2)c2cccc(NC(=O)c3cnc4cc(OCCN5CCN[C@@H](C)C5)ccn34)c12 [Example 46, (S)—N-(1-((6-isopropylpyridin-2-yl)methyl)-3-methyl-1H-indazol-4-yl)-7-(2-(3-methylpiperazin-1-yl)ethoxy)imidazo[1,2-a]pyridine-3-carboxamide]
